Series [1] relates to ADP-glucose pyrophosphorylase (AGPase) variant MP-TI/SH2, maize/potato mosaic small subunit MP with the TI mutation (threonine to isoleucine at position …). The series can be described thus: Kinetic and allosteric characterization of purified recombinant AGPase, forward direction (MP-TI/SH2). In kind it is biochemical, maize (Zea mays) / potato tuber. The protocol: (§1) The following steps were conducted at 4° C.
(§2) The reaction was stopped by boiling for 2 min. […] NADH concentration was estimated by absorbance at 340 nm.
(§3) All other values are expressed as mean±standard deviation.

The subject of series [2] is ADP-glucose pyrophosphorylase (AGPase) MP/SH2, mosaic small subunit MP (first 200 amino acids of maize BT2 and last 275 amino acids of potato tuber small …). Particulars: for Km: forward direction, pH 7.4, 37° C.
Procedure: AGPase was desalted by using Zeba Micro Desalt Spin Columns (Pierce) before assaying. AGPase was exchanged into 50 mM HEPES, 5 mM MgCl2, 0.5 mM EDTA and 0.5 mg/mL BSA (for stability).
The reaction was stopped by boiling for 2 min. PPi was estimated by coupling the reaction to a reduction in NADH concentration using 300 μl of coupling reagent. The coupling reagent contained 25 mM imidazole pH 7.4, 4 mM MgCl2, 1 mM EDTA, 0.2 mM NADH, 0.725U aldolase, 0.4U triose phosphate isomerase, 0.6U glycerophosphate dehydrogenase, 1 mM fructose 6-phosphate and 0.8 μg of pyrophosphate dependent phosphofructokinase (PPi-PFK). […] NADH concentration was estimated by absorbance at 340 nm. PPi concentration was calculated by a standard curve developed by using various amounts of PPi instead of AGPase. […] The kinetic constants of AGPase were calculated by Prism 4.0 (Graph Pad, San Diego Calif.).
All other values are expressed as mean±standard deviation. The specific activity of AGPase in the absence of 3-PGA is expressed as a percentage of the specific activity in the presence of 10 mM of 3-PGA (mean±standard error).
Series [3] shares this test system. As to conditions: MP/SH2 compared to wildtype BT2/SH2; Cross et al., 2004; Boehlein et al., 2005; cited from earlier work.
Series [4] addresses T1, maize endosperm ADP-glucose pyrophosphorylase (AGPase) variant BT2-TI/SH2, small subunit BT2 with Thr462 to Ile (TI, SEQ ID NO:2) complexed with wild type SH2 (Zea mays, UniProt P55241+Q947C0, T462I).
T1 sequence (Q947C0 1-475 T462I): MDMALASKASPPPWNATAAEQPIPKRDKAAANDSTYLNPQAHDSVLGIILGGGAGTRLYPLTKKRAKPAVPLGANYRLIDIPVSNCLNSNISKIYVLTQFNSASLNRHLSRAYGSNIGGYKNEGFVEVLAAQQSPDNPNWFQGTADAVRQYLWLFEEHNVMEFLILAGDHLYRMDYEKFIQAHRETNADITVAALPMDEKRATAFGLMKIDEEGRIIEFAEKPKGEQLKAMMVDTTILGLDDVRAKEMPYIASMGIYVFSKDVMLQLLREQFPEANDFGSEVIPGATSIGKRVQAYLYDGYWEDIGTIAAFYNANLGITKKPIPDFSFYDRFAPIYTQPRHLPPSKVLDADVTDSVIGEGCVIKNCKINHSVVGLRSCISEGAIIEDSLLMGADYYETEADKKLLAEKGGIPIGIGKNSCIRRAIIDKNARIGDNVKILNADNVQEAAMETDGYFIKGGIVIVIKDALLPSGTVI
T1 sequence (P55241 46-516): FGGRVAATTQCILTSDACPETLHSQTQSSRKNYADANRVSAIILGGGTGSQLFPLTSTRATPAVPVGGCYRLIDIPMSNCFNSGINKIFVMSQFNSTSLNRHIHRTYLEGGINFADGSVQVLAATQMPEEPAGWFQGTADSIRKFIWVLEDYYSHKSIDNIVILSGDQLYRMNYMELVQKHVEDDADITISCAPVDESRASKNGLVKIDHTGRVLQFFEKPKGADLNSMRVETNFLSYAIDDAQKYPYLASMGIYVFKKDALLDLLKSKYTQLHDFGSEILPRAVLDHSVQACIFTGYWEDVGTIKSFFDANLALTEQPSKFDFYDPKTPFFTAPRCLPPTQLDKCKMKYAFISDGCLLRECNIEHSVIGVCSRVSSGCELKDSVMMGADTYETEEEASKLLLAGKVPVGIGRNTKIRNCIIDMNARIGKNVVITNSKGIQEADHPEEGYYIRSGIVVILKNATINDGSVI
The series can be described thus: Kinetic and allosteric characterization of purified recombinant AGPase, forward direction (BT2-TI/SH2). The series is classed as biochemical. As to the method: as §1, §2
A mutant Bt2 library was created by error-prone PCR. The mutational load was ˜2 non-synonymous mutations per clone (Georgelis et al. 2007). The mutants were expressed in E. coli along with a wildtype Sh2 gene. Approximately 50,000 colonies were screened for glycogen production. Ten dark staining colonies were picked. The two darkest staining Bt2 mutants were sequenced. Both had the same non-synonymous mutation resulting in a change of amino acid 462 from threonine to isoleucine (TI). The threonine in that position is absolutely conserved among the higher plant small subunits (data not shown).
Ki's are expressed as mean (95% confidence interval). All other values are expressed as mean±standard deviation.

Series [5] addresses T2, maize endosperm ADP-glucose pyrophosphorylase (AGPase) BT2/SH2, wild type small subunit BT2 complexed with wild type large subunit SH2 (Zea mays, UniProt P55241+Q947C0).
T2 sequence (Q947C0 1-475): T1 sequence (Q947C0 1-475 T462I) with I462T
T2 sequence (P55241 46-516): T1 sequence (P55241 46-516)
Nature of the series: Kinetic and allosteric characterization of purified recombinant AGPase, forward direction (BT2/SH2). In kind it is biochemical. The protocol: as §1, §2, §3

The next series deals with T3, SH2 (Zea mays, UniProt P55241).
T3 construct: expressed in transfected cells
T3 sequence (P55241 46-516): T1 sequence (P55241 46-516)
Nature of the series: Yeast two hybrid, quantitative β-galactosidase assay of subunit-subunit interactions. In kind it is cell-based, maize. Particulars: SH2 as bait, small subunit as prey; listed as TI. As to the method:
Yeast transformations and a β-galactosidase assay were conducted as described by Greene and Hannah (1998b). The only modification was the use of pGBKT7 and pGADT7 as vectors for the bait and the prey respectively. pGBKT7-53 and pGADT7-T plasmids were used as a positive control.

The test system of the next series is maize endosperm AGPase. The series can be described thus: Kinetic characterization of purified recombinant AGPase variants, forward direction. The series is classed as biochemical. As to conditions: compared to BT2/SH2. The protocol: as §1, §2, §3
The subject of the next series is E. coli cells. The series can be described thus: Glycogen produced by E. coli cells expressing AGPase subunits. In kind it is cell-based. As to conditions: subunit expressed with SH2 or alone (homotetramer). An excerpt: A bacterial expression system (Iglesias et al., 1993) allowed us to randomly mutagenize maize endosperm AGPase genes and score AGPase activity in a fast and efficient way by exposing plates to iodine vapors as described below. The E. coli system is ideal for studying plant AGPases for a number of reasons discussed in Georgelis et al. (2007).
Glycogen synthesis was detected by production of brown staining colonies following exposure to iodine vapors. […] (Govons et al., 1969). The colonies were exposed to iodine vapors for 1 min. […] AGPase variants staining darker than wildtype were selected for further study.
Glycogen quantitation was performed by phenol reaction (Hanson and Phillips, 1981). In brief, glycogen was extracted from 1.6 ml of E. coli cells (OD600=2.0) grown in LB containing 2% w/v glucose by boiling for 3 hours in 50% w/v KOH. Glycogen was then precipitated by adding ethanol to 70% v/v and centrifuging at 10000×g for 10 min. After pellet drying, 200 μl de-ionized water, 200 μl of 5% w/v phenol and 1 mL of concentrated sulfuric acid were added. Glycogen was estimated by the absorbance at 488 nm.

Setting [6] is: specific activity in absence of 3-PGA as percentage of that with 10 mM 3-PGA, mean±standard error.
The mark [7] stands for this setting: varying ATP, G-1-P saturating (2 mM), mean±standard deviation.
Where [8] appears, read: 1 mM ATP, 2 mM G-1-P, 2.5 mM 3-PGA, mean (95% confidence interval), read-out: Ki Pi.

Where a chain is given by its changes, count along the chain named. “Also recorded” adds a separate entry of the source. Where two headings read alike, the source gives them in different places.

Data on six molecules can be found in patent publication US8536407B2, “Heat resistant plants and plant tissues comprising a variant adenosine diphosphate glucose pyrophosphorylase small subunit protein and methods of use thereof” (University of Florida Research Foundation, Inc., priority 2008, dated 2013).

As to `O=C(O)[C@H](O)COP(=O)(O)O` [3-PGA], the “Vmax − 3-PGA/Vmax + 3-PGA” value was “(24.4 ± 5.3%)” in series [1] (setting [6]); “(28.2 ± 3.1%)” in series [2] (MP/SH2, specific activity in absence of 3-PGA as percentage of that with 10 mM 3-PGA, mean±standard error); “(7.2 ± 3.2%)” in series [5] (setting [6]). In addition, the “affinity for 3-PGA (in words)” value was “increased affinity for 3-PGA; also recorded: a higher affinity for 3-PGA” in series [2] (MP/SH2 compared to BT2/SH2) and “increased affinity for 3-PGA” in series [3]. For the same molecule, the “Ka for 3-PGA (compared with BT2/SH2, in words)” value in series [4] (BT2-TI/SH2 versus BT2/SH2) was “indistinguishable from BT2/SH2”.
With `Nc1ncnc2c1ncn2[C@@H]1O[C@H](COP(=O)(O)OP(=O)(O)OP(=O)(O)O)[C@@H](O)[C@H]1O` [ATP], the Michaelis constant (Km) (as a rule, the substrate concentration at which the rate is half of its maximum) was 112 µM in series [1] (forward direction, pH 7.4, 37° C., varying ATP, mean±standard deviation, read-out: Km ATP); 133 µM in series [2] (read-out: Km ATP, MP/SH2, varying ATP, mean±standard deviation); 146 µM in series [4] (read-out: Km ATP, BT2-TI/SH2, forward direction, pH 7.4, 37° C., varying ATP, mean±standard deviation); 102 µM in series [5] (read-out: Km ATP, forward direction, pH 7.4, 37° C., varying ATP, mean±standard deviation). The “kcat (ATP)” value in series [1] (setting [7]) turned out to be 49.031 s⁻¹; in series [2] (MP/SH2, varying ATP, G-1-P saturating (2 mM), mean±standard deviation) it was 69.337 s⁻¹; in series [4] (BT2-TI/SH2, varying ATP, G-1-P saturating (2 mM), mean±standard deviation) it was 29.112 s⁻¹; in series [5] (setting [7]) it was 43.321 s⁻¹. Also, the “Km (compared with BT2/SH2, in words)” value in series [4] (BT2-TI/SH2 versus BT2/SH2) is given as “indistinguishable from BT2/SH2”.
On to `O=P(O)(O)O[C@H]1O[C@H](CO)[C@@H](O)[C@H](O)[C@H]1O` [G-1-P, glucose-1-P], for which the Km in series [1] (read-out: Km G-1-P, forward direction, pH 7.4, 37° C., varying G-1-P, mean±standard deviation) was found to be 59 µM; in series [2] (read-out: Km G-1-P, MP/SH2, varying G-1-P, mean±standard deviation), 79 µM. The “kcat (G-1-P)” value turned out to be 42.880 s⁻¹ in series [1] (varying G-1-P, ATP saturating (1 mM), mean±standard deviation) and 62.655 s⁻¹ in series [2] (MP/SH2, varying G-1-P, ATP saturating (1 mM), mean±standard deviation). Also, the “Km (compared with BT2/SH2, in words)” value in series [4] (BT2-TI/SH2 versus BT2/SH2) is recorded as “indistinguishable from BT2/SH2”.
As for `O=P(O)(O)O` [Pi, inorganic phosphate], the Ki – broadly, the equilibrium dissociation constant of an inhibitor or competing ligand from its target – was 5.87 mM in series [1] (setting [8]); 6.61 mM in series [2] (read-out: Ki Pi, MP/SH2, 1 mM ATP, 2 mM G-1-P, 2.5 mM 3-PGA, mean (95% confidence interval)); 4.07 mM in series [4] (BT2-TI/SH2, 1 mM ATP, 2 mM G-1-P, 2.5 mM 3-PGA, mean (95% confidence interval), read-out: Ki Pi); 2.32 mM in series [5] (setting [8]). Besides, the “affinity for Pi (in words)” value in series [2] (MP/SH2 compared to BT2/SH2) is on record as “decreased affinity for Pi; also recorded: a lower affinity for the inhibitor Pi”. The “Ki for Pi (compared with BT2/SH2, in words)” value in series [4] (BT2-TI/SH2 versus BT2/SH2) is “indistinguishable from BT2/SH2”.

B1: BT2-TI: BT2 small subunit with change of amino acid 462 from threonine to isoleucine (protein)
chain: T1 sequence (Q947C0 1-475 T462I)
modifications: zea mays BT2 protein
notes: BT2 small subunit with change of amino acid 462 from threonine to isoleucine
Turning to B1, the “strength of subunit-subunit interactions” value in the series with SH2 is “did not increase the strength of subunit-subunit interactions; also recorded: does not strengthen the subunit-subunit interactions”. In the series with maize endosperm AGPase, the “kcat lower than kcat of BT2/SH2” value is on record as 30%.

B2: MP-TI: MP mosaic small subunit with the amino acid change of TI introduced (protein)
chain: MDMALASKASPPPWNATAAEQPIPKRDKAAANDSTYLNPQAHDSVLGIILGGGAGTRLYPLTKKRAKPAVPLGANYRLIDIPVSNCLNSNISKIYVLTQFNSASLNRHLSRAYGSNIGGYKNEGFVEVLAAQQSPDNPNWFQGTADAVRQYLWLFEEHNVMEFLILAGDHLYRMDYEKFIQAHRETNADITVAALPMDEKRATAFGLMKIDEEGRIIEFAEKPQGEQLQAMKVDTTILGLDDKRAKEMPFIASMGIYVISKDVMLNLLRDKFPGANDFGSEVIPGATSLGMRVQAYLYDGYWEDIGTIEAFYNANLGITKKPVPDFSFYDRSAPIYTQPRYLPPSKMLDADVTDSVIGEGCVIKNCKIHHSVVGLRSCISEGAIIEDSLLMGADYYETDADRKLLAAKGSVPIGIGKNCHIKRAIIDKNARIGDNVKIINKDNVQEAARETDGYFIKSGIVIVIKDALIPSGIII
modifications: zea mays MP-TI protein
notes: MP mosaic small subunit with the amino acid change of TI introduced
Take B2: the “glycogen produced by E. coli cells” value with E. coli cells is recorded as “yielded an equal amount of glycogen as MP/SH2”.
